Each structure is given as a SMILES string. Where two headings read alike, the source gives them in different places. Some results are limits rather than exact numbers.

For one series, the target named is T1, serotonin S2 receptor (Rattus norvegicus, UniProt P14842).
T1 construct: The receptor fraction prepared from the cortex was molten and suspended; from tissue; host or cells: cerebral cortex of SD rats (membrane fraction)
As to the kind of experiment: serotonin S2 receptor binding test ([3H] Ketanserin Binding Test). The note with it: 1 nM [3H] Ketanserin, rat cortex, 37° C., 15 minutes. More on the design: species or system SD rats. The essentials: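 Ki values came from probit IC50s corrected for radioligand concentration and Kd (Scatchard). Binding used 1 nM [3H]ketanserin with SD rat cortex membrane fractions, 15 min at 37 °C in Tris-HCl pH 7.4. Bound radioactivity was measured after GF/B filtration, with methysergide for nonspecific binding.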

The next series addresses T2, dopamine D2 receptor (Rattus norvegicus, UniProt P61169).
T2 construct: the receptor fraction prepared from the corpus striatum was molten and suspended; from tissue; host or cells: corpus striatum of SD rats (membrane fraction)
As to the kind of experiment: dopamine D2 receptor binding test ([3H] Spiperone Binding Test). More on the design: species or system SD rats. To be noted: 1 nM [3H] Spiperone, rat corpus striatum, room temperature, 60 minutes. The essentials: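 Rat (SD, 6–8 weeks) corpus striatum membranes in 50 mM Krebs-Tris pH 7.4 were incubated with 1 nM [3H]spiperone at room temperature for 60 minutes, with nonspecific binding defined by excess spiperone. IC50 came from probit analysis; Ki was derived using radioligand concentration and Scatchard Kd.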

The next series addresses adrenergic α1 receptor. As to the kind of experiment: adrenergic α1 receptor binding test ([3H] Prazosin Binding Test). To be noted: 1 nM [3H] Prazosin, rat cortex, room temperature, 60 minutes. More on the design: species or system SD rats. The essentials:
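Rat (SD, 6-8 weeks) cerebral cortex membranes in 50 mM Tris-HCl pH 7.4 incubated with 1 nM [3H]prazosin for 60 min at room temperature; nonspecific binding defined with phentolamine. IC50 by probit method, converted to Ki using radioligand concentration and Scatchard-derived Kd.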

For series [1] the following is noted: background, cited from earlier work; for extrapyramidal syndrome as adverse reaction: D2 receptor antagonists.
[2] abbreviates: read-out: Ki value, dopamine D2 receptor.

T1 sequence (P14842 whole entry): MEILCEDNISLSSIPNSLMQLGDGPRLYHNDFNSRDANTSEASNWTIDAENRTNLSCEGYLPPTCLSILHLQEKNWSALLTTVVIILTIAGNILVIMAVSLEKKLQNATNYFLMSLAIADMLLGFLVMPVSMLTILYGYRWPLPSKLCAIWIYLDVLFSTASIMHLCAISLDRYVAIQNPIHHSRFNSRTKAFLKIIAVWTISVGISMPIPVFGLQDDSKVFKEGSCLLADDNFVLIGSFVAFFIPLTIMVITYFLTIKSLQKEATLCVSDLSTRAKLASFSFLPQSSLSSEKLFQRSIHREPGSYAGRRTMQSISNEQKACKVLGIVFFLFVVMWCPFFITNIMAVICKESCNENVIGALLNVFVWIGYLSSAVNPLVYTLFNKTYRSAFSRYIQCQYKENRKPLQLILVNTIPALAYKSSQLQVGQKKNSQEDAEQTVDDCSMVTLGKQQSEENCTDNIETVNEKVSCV
T2 sequence (P61169 whole entry): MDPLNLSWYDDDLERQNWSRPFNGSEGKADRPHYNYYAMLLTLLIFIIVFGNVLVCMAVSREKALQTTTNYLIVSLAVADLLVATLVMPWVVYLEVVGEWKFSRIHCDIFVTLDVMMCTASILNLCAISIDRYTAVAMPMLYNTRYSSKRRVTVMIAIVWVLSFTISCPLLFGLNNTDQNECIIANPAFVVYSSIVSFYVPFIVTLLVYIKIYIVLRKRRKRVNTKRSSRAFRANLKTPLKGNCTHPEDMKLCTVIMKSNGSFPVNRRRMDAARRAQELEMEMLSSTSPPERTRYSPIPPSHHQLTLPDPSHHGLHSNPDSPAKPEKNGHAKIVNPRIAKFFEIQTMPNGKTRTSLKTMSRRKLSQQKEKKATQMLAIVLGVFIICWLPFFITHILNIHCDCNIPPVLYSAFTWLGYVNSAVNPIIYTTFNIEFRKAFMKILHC

Usually Ki stands for the dissociation constant of the complex between target and ligand, obtained from inhibition or displacement. For `CCCS(=O)(=O)Nc1cc(N2CCN(CC)CC2)cc(-c2ccc(OC)cc2)c1Cl` [Example 187, 1-Ethyl-4-[3-(4-methoxyphenyl)-4-chloro-5-propanesulfonyamino]phenylpiperazine], the values for the Ki at serotonin S2 receptor, on dopamine D2 receptor (setting [2]) and at adrenergic α1 receptor were 38.2 nM, 0.54 nM and 7.8 nM, respectively.
As for `CN1CCN(c2cc(NS(C)(=O)=O)c(Cl)c(-c3ccccc3Cl)c2)CC1` [Example 188, 1-Methyl-4-[3-(2-chlorophenyl)-4-chloro-5-methanesulfonylamino]phenylpiperazine], the Ki at serotonin S2 receptor was determined as 47.8 nM; at dopamine D2 receptor (setting [2]) it was 1.33 nM; at adrenergic α1 receptor, 19 nM.
Taken in the same sequence, the figures for `CCCS(=O)(=O)Nc1cc(N2CCN(CC)CC2)cc(-c2ccc(Cl)cc2Cl)c1Cl` [Example 189, 1-Ethyl-4-[3-(2,4-dichlorophenyl)-4-chloro-5-propanesulfonyamino]phenylpiperazine] were over 100 nM, 1.51 nM and 32.5 nM.
For the molecule `CCN1CCN(c2cc(-c3ccccc3C)c(Cl)c(C3SCCCS3)c2)CC1` [Example 190, 1-Ethyl-4-[3-(2-tolyl)-4-chloro-5-(1,3-dithian-2-yl)phenylpiperazinepropanedithio]phenylpiperazine], the Ki was 18.5 nM at serotonin S2 receptor, 40.4 nM on dopamine D2 receptor (setting [2]) and over 1000 nM at adrenergic α1 receptor.
The corresponding values for `CCCS(=O)(=O)c1cc(N2CCN(CC)CC2)cc(-c2ccccc2)c1Cl` [Example 191] are 3.76 nM, 1.65 nM and 21.2 nM.
The corresponding values for `CCCS(=O)(=O)NCc1cc(N2CCN(CC)CC2)cc(-c2ccccc2C)c1Cl` [Example 192, 1-Ethyl-4-[3-(2-tolyl)-4-chloro-5-propanesulfonylaminomethyl]phenylpiperazine] are 374 nM, over 100 nM and 550 nM.
The corresponding values for `CCCS(=O)(=O)c1cc(N2CCN(C)CC2)cc(-c2ccc(F)cc2)c1OC` [Example 193, 1-Methyl-4-[3-(4-fluorophenyl)-4-methoxy-5-propanesulfonyl]phenylpiperazine] are 1.61 nM, 19.3 nM and 585 nM.
Take `CCCS(=O)(=O)Nc1cc(N2CCN(CC)CC2)cc(-c2ccccc2CC)c1Cl` [Example 194, 1-Ethyl-4-[3-(2-ethylphenyl)-4-chloro-5-propanesulfonylamino]phenylpiperazine]: the Ki on serotonin S2 receptor is 4.45 nM; on dopamine D2 receptor (setting [2]), 0.83 nM; at adrenergic α1 receptor it was over 1000 nM.
The corresponding values for `CCS(=O)(=O)c1cc(N2CCN(CCO)CC2)cc(-c2ccc(F)cc2)c1OC` [Example 195] are 5.75 nM, 70.6 nM and over 1000 nM.
Turning to `CCCS(=O)(=O)Nc1cc(N2CCN(CC)CC2)cc(-c2ccccc2C=O)c1Cl` [Example 196, 1-(2-Ethyl)-4-[3-(2-formylphenyl)-4-chloro-5-propanesulfonylamino]phenylpiperazine], the figures for the Ki on serotonin S2 receptor, on dopamine D2 receptor (setting [2]) and at adrenergic α1 receptor were 13.2 nM, 5.52 nM and 744 nM, respectively.
In the case of `CCCS(=O)(=O)Nc1cc(N2CCN(CC)CC2)cc(-c2ccccc2C#N)c1Cl` [Example 197, 1-Ethyl-4-[3-(2-cyanophenyl)-4-chloro-5-propanesulfonylamino]phenylpiperazine], the Ki on serotonin S2 receptor is 8.86 nM; on dopamine D2 receptor (setting [2]), 1.4 nM; at adrenergic α1 receptor, 31.4 nM.
The corresponding values for `CCS(=O)(=O)c1cc(N2CCN(CCc3ccccn3)CC2)cc(-c2ccc(F)cc2)c1OC` [Example 198, 1-[2-(2-Pyridyl)ethyl]-4-[3-(4-fluorophenyl)-4-methoxy-5-ethanesulfonyl]phenylpiperazine] are 1.06 nM, 12.1 nM and 62.7 nM.
As to `CCS(=O)(=O)c1cc(N2CCN(CCc3ccncc3)CC2)cc(-c2ccc(F)cc2)c1OC` [Example 201, 1-[2-(4-Pyridyl)ethyl]-4-[3-(4-fluorophenyl)-4-methoxy-5-ethanesulfonyl]phenylpiperazine], the Ki on serotonin S2 receptor amounted to 3.17 nM; at dopamine D2 receptor (setting [2]), 19.7 nM; at adrenergic α1 receptor, 12.9 nM.
In the case of `CCC(F)c1cc(N2CCN(C)CC2)cc(-c2ccccc2)c1Cl` (stereo not shown) [Example 206], the Ki is 4.29 nM at serotonin S2 receptor; 1.06 nM on dopamine D2 receptor (Ki value, dopamine D2 receptor); 47.8 nM at adrenergic α1 receptor.
In the case of `CCC(F)c1cc(N2CCN(C)CC2)cc(-c2ccccc2CO)c1Cl` (stereo not shown) [Example 207], the Ki was 81.1 nM at serotonin S2 receptor, 240 nM on dopamine D2 receptor (setting [2]) and over 1000 nM on adrenergic α1 receptor.
Taken in the same sequence, the figures for `CCC(F)c1cc(N2CCN(CC)CC2)cc(-c2ccccc2CF)c1Cl` (stereo not shown) [Example 208, 1-Ethyl-4-[3-(2-fluoromethylphenyl)-4-chloro-5-(1-fluoropropyl)]phenylpiperazine] were 16.1 nM, 3.46 nM and 2380 nM.
The corresponding values for `CC[C@H](F)c1cc(N2CCN(CC)CC2)cc(-c2ccc(F)cc2C)c1Cl` [Example 211, 1-Ethyl-4-{3-[2-(4-fluorotolyl)]-4-chloro-5-[1-(S)-fluoropropnyl]}phenylpiperazine] are 8.81 nM, 4.14 nM and 1020 nM.
Taken in the same sequence, the figures for `CCC(F)c1cc(N2CCN(CCc3ccccn3)CC2)cc(-c2ccccc2C)c1Cl` (stereo not shown) [Example 213, 1-[2-(2-Pyridyl)ethyl]-4-[3-(2-tolyl)-4-chloro-5-(1-fluoropropyl)]phenylpiperazine] were 10.3 nM, 14.3 nM and 236 nM.
With `CCC(F)c1cc(N2CCN(CCc3ccccn3)CC2)cc(-c2ccccc2C#N)c1Cl` (stereo not shown) [Example 214, 1-[2-(2-Pyridyl)ethyl]-4-[3-(2-cyanophenyl)-4-chloro-5-(1-fluoropropyl)]phenylpiperazine], the Ki came to 3.78 nM at serotonin S2 receptor, 5.15 nM on dopamine D2 receptor (setting [2]) and 51.7 nM on adrenergic α1 receptor.
On to `CC[C@@H](F)c1cc(N2CCN(C)CC2)cc(-c2ccccc2C)c1Cl` [Example 220, 1-Methyl-4-{3-(2-tolyl)-4-chloro-5-[1-(R)-fluoropropyl]}phenylpiperazine], for which the Ki on serotonin S2 receptor was 37.9 nM; at dopamine D2 receptor (setting [2]), 1.25 nM; at adrenergic α1 receptor, 1680 nM.
Taken in the same sequence, the figures for `CC[C@H](F)c1cc(N2CCN(C)CC2)cc(-c2ccccc2C)c1Cl` [Example 221, 1-Methyl-4-{3-(2-tolyl)-4-chloro-5-[1-(S)-fluoropropyl]}phenylpiperazine] were 4.53 nM, 3.45 nM and 486 nM.
The corresponding values for `CC[C@H](F)c1cc(N2CCN(CCO)CC2)cc(-c2ccc(F)cc2C)c1Cl` [Example 222] are 12 nM, 6.5 nM and 1040 nM.
For `CC[C@@H](F)c1cc(N2CCN(CCO)CC2)cc(-c2ccc(F)cc2C)c1Cl` [Example 223, 1-(2-Hydroxyethyl)-4-{3-[2-(4-fluorotolyl)]-4-chloro-5-[1-(R)-fluoropropyl]}phenylpiperazine], the Ki amounted to 1860 nM on serotonin S2 receptor, 6.61 nM on dopamine D2 receptor (setting [2]) and 1510 nM on adrenergic α1 receptor.
With `Cc1nc2n(c(=O)c1CCN1CCC(c3noc4cc(F)ccc34)CC1)CCCC2` [Risperidone, risperidone], in series [1] (owing to high α1 blocking activity), the “blood-pressure drop as adverse reaction” value is on record as “blood-pressure drop occurs as an adverse reaction”. In series [1], the “QTC interval in electrocardiogram” value is recorded as “lengthened to induce arrhythmia”.
In the case of `CCN(CC)CCNC(=O)c1cc(S(C)(=O)=O)ccc1OC` [Tiapride], the “extrapyramidal syndrome as adverse reaction” value in series [1] was “causing extrapyramidal syndrome”.
Turning to `O=C(CCCN1CCC(O)(c2ccc(Cl)cc2)CC1)c1ccc(F)cc1` [haloperidol], the “extrapyramidal syndrome as adverse reaction” value in series [1] is on record as “causing extrapyramidal syndrome”.
